≈ marks a conversion by molar mass, not a printed value.
Legend:
PBP2a = PBP2a (Staphylococcus aureus, UniProt P07944); assay: PBP2 assay (Villegas-Esterada et al.); type: biochemical; settings: Table 10
Description: (§1) β-Lactamase Assays (TEM-1, P99, and OXA-10): The activity of the compounds of the invention (inhibitors) toward β-lactamases was evaluated using 96 well plates. The reaction mixture included 10 mM sodium phosphate, pH 7.0, 150 mM sodium chloride, 0.01% Triton X-100, 100 μM nitrocefin, 10 nM of β-lactamases (class A: TEM-1; class C: P99, or class D: OXA-10), and variable concentrations of the inhibitors in a total volume of 100 μL. β-Lactamases were pre-incubated with the compounds at room temperature for 5 minutes, and the assay was initiated by the addition of nitrocefin. The inhibition of the enzyme activity by the compounds was determined by monitoring color change (from yellow to red) of nitrocefin after 20 minutes. Stock solutions of the compounds were prepared in dimethyl sulfoxide (DMSO). No more than 5% DMSO was present in assays, unless noted otherwise. B1aR Assay: The surface domain of B1aR (1 μM) was added to each inhibitor (at various concentrations) in 100 mM sodium phosphate, 50 mM sodium bicarbonate, at pH 7.0. The reaction mixtures were incubated at room temperature for 20 minutes. BOCILLIN FL, a fluorogenic ligand, was added to a concentration of 20 μM in a final volume of 20 μL. The mixtures were incubated at 37° C. for 5 minutes, at which point the reactions were quenched by the addition of 15 μL of the SDS sample buffer (125 mM Tris, 4% SDS, 20% glycerol, 2% 2-mercaptoethanol, pH 6.8), and were boiled for 4 minutes. The samples were loaded onto 15% SDS-PAGE, the gel was developed and scanned using a Storm 840® Fluorimager. The fluorescent bands of BOCILLIN FL-labeled B1aR^S were analyzed by Image Quant 5.2 software. PBP2 Assay: The PBP2 assay was performed according to the methods of Villegas-Esterada et al. (J. Am. Chem. Soc. 2008, 130, 9212-9213).

surface domain of B1aR = surface domain of B1aR (Staphylococcus aureus, UniProt P18357); assay: B1aR assay (BOCILLIN FL labeling, SDS-PAGE); type: binding, Staphylococcus aureus (MRSA); settings: Table 10; class symbols x/xx/xxx, key not given
Description: as §1

[1] = molecular target: TEM-1 (class A β-lactamase) (Escherichia coli, UniProt P62593); assay: β-Lactamase assay (nitrocefin colour change), TEM-1; type: biochemical; settings: for TEM-1: Table 10, class symbols x/xx/xxx, key not given
Description: as §1

[2] = molecular target: P99 (class C β-lactamase) (Enterobacter cloacae, UniProt P05364); assay: β-Lactamase assay (nitrocefin colour change), P99; type: biochemical; settings: for P99: Table 10, class symbols x/xx/xxx, key not given; for IC50: nitrocefin 100 μM, 10 nM enzyme, 5 min pre-incubation, read-out: IC50s P99
Description: as §1

[3] = molecular target: OXA-10 (class D β-lactamase) (Pseudomonas aeruginosa, UniProt P14489); assay: β-Lactamase assay (nitrocefin colour change), OXA-10; type: biochemical; settings: for OXA-10: Table 10, class symbols x/xx/xxx, key not given; for IC50: nitrocefin 100 μM, 10 nM enzyme, 5 min pre-incubation, read-out: IC50s OXA-10
Description: as §1

S. aureus NRS11 (Mec^S) = assay: MIC against S. aureus NRS11 (Table 13); type: cell-based, Staphylococcus aureus; settings: for MIC: Staphylococcus aureus, compounds dissolved in DMSO or 1% sodium carbonate, read-out: MIC; for inhibitory properties (in words): Table 13
Description: All recited compounds were dissolved in DMSO or in 1% sodium carbonate and transferred to micro titer plates to final concentrations of 1000 μg/mL.

S. aureus NRS100 (Mec^R) = assay: MIC against S. aureus NRS100 (Table 14); type: cell-based, Staphylococcus aureus; settings: for MIC: Staphylococcus aureus, compounds dissolved in DMSO or 1% sodium carbonate, read-out: MIC; for inhibitory activity (in words): Table 14
Description: The recited compounds were dissolved in DMSO or in 1% sodium carbonate and transferred into micro titer plate to final concentration of 1000 μg/mL.

[4] = tested on: methicillin-resistant strains of S. aureus; assay: MIC against methicillin-resistant S. aureus (Table 15); type: cell-based; settings: Staphylococcus aureus, dissolved in 100% DMSO, diluted into Mueller Hinton II Broth to final 16 μg/mL
Description: Table 15 illustrates the inhibition of methicillin-resistant strains of S. aureus by selected compounds of the invention.

PBP2a, sequence (P07944 whole entry): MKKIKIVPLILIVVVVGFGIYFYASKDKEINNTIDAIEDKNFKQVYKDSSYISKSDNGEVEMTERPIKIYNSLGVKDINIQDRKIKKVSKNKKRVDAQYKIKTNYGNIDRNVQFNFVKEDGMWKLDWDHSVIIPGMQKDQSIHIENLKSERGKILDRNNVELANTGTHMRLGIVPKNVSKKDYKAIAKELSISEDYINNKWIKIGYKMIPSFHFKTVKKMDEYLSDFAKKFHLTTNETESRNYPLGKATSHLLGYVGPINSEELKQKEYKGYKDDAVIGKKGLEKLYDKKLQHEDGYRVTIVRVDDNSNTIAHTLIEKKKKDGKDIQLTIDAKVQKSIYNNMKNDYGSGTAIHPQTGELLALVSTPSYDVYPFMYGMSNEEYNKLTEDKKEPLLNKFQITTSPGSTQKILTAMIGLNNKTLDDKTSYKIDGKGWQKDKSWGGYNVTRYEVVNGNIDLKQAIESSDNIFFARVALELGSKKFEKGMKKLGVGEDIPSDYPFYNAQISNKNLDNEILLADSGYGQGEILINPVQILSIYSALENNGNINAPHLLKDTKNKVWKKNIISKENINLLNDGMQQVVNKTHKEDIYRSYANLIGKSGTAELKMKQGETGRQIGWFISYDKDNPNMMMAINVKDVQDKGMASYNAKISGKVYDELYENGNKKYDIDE
TEM-1 (class A β-lactamase), sequence (P62593 24-286 limits assumed): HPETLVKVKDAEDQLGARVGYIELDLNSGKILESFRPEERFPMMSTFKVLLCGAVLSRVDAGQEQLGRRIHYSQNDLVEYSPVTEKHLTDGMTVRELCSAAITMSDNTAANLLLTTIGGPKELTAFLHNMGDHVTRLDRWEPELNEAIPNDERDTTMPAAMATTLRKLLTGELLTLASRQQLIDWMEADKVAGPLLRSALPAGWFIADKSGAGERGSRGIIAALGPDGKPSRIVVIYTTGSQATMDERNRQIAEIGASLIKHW
P99 (class C β-lactamase), sequence (P05364 21-381): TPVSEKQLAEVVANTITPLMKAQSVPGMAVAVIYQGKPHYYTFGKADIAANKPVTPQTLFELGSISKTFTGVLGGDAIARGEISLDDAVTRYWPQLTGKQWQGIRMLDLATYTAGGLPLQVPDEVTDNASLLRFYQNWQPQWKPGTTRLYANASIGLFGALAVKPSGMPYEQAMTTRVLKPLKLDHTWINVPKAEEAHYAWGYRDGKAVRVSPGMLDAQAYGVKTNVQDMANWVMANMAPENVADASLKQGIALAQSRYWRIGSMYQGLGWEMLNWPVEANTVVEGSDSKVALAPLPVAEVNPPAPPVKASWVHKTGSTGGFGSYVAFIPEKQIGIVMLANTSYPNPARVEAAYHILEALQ
surface domain of B1aR, sequence (P18357 331-585): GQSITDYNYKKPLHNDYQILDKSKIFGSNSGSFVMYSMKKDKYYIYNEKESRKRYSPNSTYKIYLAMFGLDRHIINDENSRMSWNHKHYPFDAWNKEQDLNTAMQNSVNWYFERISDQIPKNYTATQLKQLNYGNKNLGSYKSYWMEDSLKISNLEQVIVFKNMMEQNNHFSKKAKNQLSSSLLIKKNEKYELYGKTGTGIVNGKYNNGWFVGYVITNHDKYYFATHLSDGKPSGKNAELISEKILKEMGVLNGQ
OXA-10 (class D β-lactamase), sequence (P14489 20-266, species assumed): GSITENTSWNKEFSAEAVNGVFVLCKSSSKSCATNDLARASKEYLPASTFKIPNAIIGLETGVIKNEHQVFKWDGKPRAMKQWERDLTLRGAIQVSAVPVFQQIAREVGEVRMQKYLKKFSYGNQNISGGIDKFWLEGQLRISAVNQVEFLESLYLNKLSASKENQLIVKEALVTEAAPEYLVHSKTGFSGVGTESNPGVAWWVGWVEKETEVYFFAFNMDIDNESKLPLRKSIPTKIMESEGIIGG

Row | Compound | PBP2a* (inhibitory concentration) (PBP2a) | BlaR (surface domain of B1aR) | IC50 [1] [µM] | TEM-1 [1] | P99 [2] | IC50 [2] [µM] | OXA-10 [3] | IC50 [3] [µM] | MIC (S. aureus NRS11 (Mec^S)) [µg/mL] | MIC (S. aureus NRS100 (Mec^R)) [µg/mL] | inhibitory activity (in words) (S. aureus NRS100 (Mec^R)) | MIC [4] [µg/mL] | inhibitory properties (in words) (S. aureus NRS11 (Mec^S))
1 | CCC(CO)NC(=O)C1=C(C(=O)O)SCCS1 (stereo not drawn) [Compound 126] | xx | – | – | – | – | – | – | – | – | – | – | – | –
2 | O=C(O)c1c(F)c(F)c(F)c(F)c1C(=O)Nc1ccc(Oc2cc(C(F)(F)F)cc(C(F)(F)F)c2)cc1 [Compound 412] | – | xx | – | – | – | – | – | – | – | – | – | – | –
3 | CC(Oc1ccc(NC(=O)c2c(Br)c(Br)c(Br)c(Br)c2C(=O)O)cc1Cl)c1ccccc1 (stereo not drawn) [Compound 382] | xxx | – | 5.3 ± 1.1 | xxx | xxx | 24.4 ± 1.9 | xxx | 26.6 ± 1.6 | < 8 | < 8 | significant inhibitory activity | – | –
4 | CCCCCCCCOc1ccc(NC(=O)c2c(Br)c(Br)c(Br)c(Br)c2C(=O)O)cc1Cl [Compound 303] | – | xx | – | – | – | – | – | – | – | 4 (≈ 5.56 µM) | – | 4 (≈ 5.56 µM) | –
5 | O=C(O)c1c(F)c(F)c(F)c(F)c1C(=O)Nc1ccc(OCc2cccc(OC(F)(F)F)c2)c(Cl)c1 [Compound 418] | – | xxx | – | – | – | – | xx | – | – | 125 (≈ 232 µM) | – | – | –
6 | CCCCCCCCOc1ccc(NC(=O)c2c(Br)c(Br)c(Br)c(Br)c2C(=O)O)cn1 [Compound 346] | – | – | 2.8 ± 0.3 | xxx | xxx | 7.8 ± 1.2 | xxx | 13.1 ± 0.8 | < 8 | < 8 | significant inhibitory activity | 8 (≈ 11.7 µM) | significant inhibitory properties
7 | O=C(O)c1c(Cl)c(Cl)c(Cl)c(Cl)c1C(=O)Nc1ccc(OCc2cccc(OC(F)(F)F)c2)c(Cl)c1 [Compound 419] | xxx | xxx | 2.3 ± 0.1 | xxx | xx | 13 ± 2 | xxx | 10.8 ± 0.7 | – | 8 (≈ 13.3 µM) | – | 8 (≈ 13.3 µM) | –
8 | CCCCCCCCCCOc1ccc(NC(=O)c2c(Br)c(Br)c(Br)c(Br)c2C(=O)O)cc1 [Compound 329] | – | xxx | – | – | – | – | – | – | – | – | – | – | –
9 | O=C(O)c1c(Br)c(Br)c(Br)c(Br)c1C(=O)Nc1ccc(Oc2cc(C(F)(F)F)cc(C(F)(F)F)c2)cc1 [Compound 414] | xxx | xxx | 4.5 ± 0.4 | xxx | xxx | 12 ± 0.5 | xxx | 19.5 ± 2 | – | 4 (≈ 5.1 µM) | – | 4 (≈ 5.1 µM) | –
10 | CCCCCCCCOc1ccc(NC(=O)c2ccccc2C(=O)O)cc1Cl [Compound 300] | xxx | – | 0.7 ± 0.08 | xxx | xx | 10.3 ± 0.4 | xx | 30.7 ± 2.8 | – | 8 (≈ 19.8 µM) | – | 16 (≈ 39.6 µM) | –
11 | O=C(O)C1=C(C(=O)N[C@@H](CO)[C@@H](O)c2ccccc2)SCCS1 [Compound 127] | xx | – | – | – | – | – | – | – | – | – | – | – | –
12 | O=C(O)c1ccccc1C(=O)Nc1ccc(OCc2cccc(OC(F)(F)F)c2)c(Cl)c1 [Compound 417] | – | xx | – | – | – | – | – | – | – | 250 (≈ 537 µM) | – | – | –
13 | CCCCCCCCCCOc1ccc(N(C)C(=O)c2c(Br)c(Br)c(Br)c(Br)c2C(=O)O)cc1 [Compound 316] | – | xx | – | – | – | – | – | – | – | – | – | – | –
14 | CCCCCCCCCCOc1ccc(N(C)C(=O)c2c(F)c(F)c(F)c(F)c2C(=O)O)cc1 [Compound 319] | – | xxx | – | – | – | – | – | – | – | – | – | – | –
15 | CCCCCCCCCCCCCCCCOc1ccc(NC(=O)c2c(F)c(F)c(F)c(F)c2C(=O)O)cc1 [Compound 289] | – | xxx | 23.1 ± 2.4 | – | xx | 1.2 ± 0.1 | xxx | 0.7 ± 0.15 | – | – | – | – | –
16 | CCCCCCCCCCCCCCCCOc1ccc(NC(=O)c2c(Br)c(Br)c(Br)c(Br)c2C(=O)O)cc1 [Compound 291] | – | xx | 0.2 ± 0.04 | xxx | xxx | 0.2 ± 0.02 | xxx | 0.3 ± 0.06 | – | – | – | – | –
17 | CCCCCCCCOc1ccc(NC(=O)c2c(Cl)c(Cl)c(Cl)c(Cl)c2C(=O)O)cc1Cl [Compound 302] | – | – | – | – | – | – | – | – | – | 4 (≈ 7.38 µM) | – | 4 (≈ 7.38 µM) | –
18 | O=C(O)c1c(Cl)c(Cl)c(Cl)c(Cl)c1C(=O)Nc1ccc(Oc2cc(C(F)(F)F)cc(C(F)(F)F)c2)cc1 [Compound 413] | xxx | – | 27 ± 2.9 | xxx | xxx | 31.2 ± 6.4 | xxx | 80.8 ± 7 | – | 8 (≈ 13.2 µM) | – | 16 (≈ 26.4 µM) | –
19 | O=C(O)c1c(Br)c(Br)c(Br)c(Br)c1C(=O)Nc1ccc(Oc2ccccc2)cc1 [Compound 222] | xx | – | – | – | – | – | – | – | – | – | – | – | –
20 | Cc1ccccc1COc1ccc(NC(=O)c2c(Cl)c(Cl)c(Cl)c(Cl)c2C(=O)O)cc1Cl [Compound 385] | xxx | – | – | xx | xx | – | xxx | – | 16 (≈ 30 µM) | 16 (≈ 30 µM) | significant inhibitory activity | – | significant inhibitory properties
21 | CCCCCCCCCCCCCCCCOc1ccc(NC(=O)c2c(Cl)c(Cl)c(Cl)c(Cl)c2C(=O)O)cc1 [Compound 290] | – | xxx | 0.6 ± 0.06 | – | xxx | 0.4 ± 0.06 | xxx | 0.5 ± 0.05 | – | – | – | – | –
22 | O=C(O)c1ccc([N+](=O)[O-])cc1C(=O)Nc1ccc(OCc2cccc(OC(F)(F)F)c2)c(Cl)c1 [Compound 422] | xxx | xxx | – | xx | xx | – | xx | – | – | 125 (≈ 245 µM) | – | – | –
23 | CCCCCCCCOc1ccc(NC(=O)c2c(F)c(F)c(F)c(F)c2C(=O)O)cc1 [Compound 271] | – | xxx | – | xxx | xxx | – | xxx | – | – | – | – | – | –
24 | CCCCCCCCOc1ccc(NC(=O)c2ccccc2C(=O)O)cc1 [Compound 270] | – | xx | – | xxx | xxx | – | xxx | – | – | – | – | – | –
25 | CCCCCCCCOc1ccc(NC(=O)c2c(Cl)c(Cl)c(Cl)c(Cl)c2C(=O)O)cn1 [Compound 345] | – | – | 4.9 ± 0.2 | xxx | xxx | 27.8 ± 2.9 | xxx | 37.9 ± 6 | 16 (≈ 31.5 µM) | 16 (≈ 31.5 µM) | significant inhibitory activity | 16 (≈ 31.5 µM) | significant inhibitory properties
26 | CCCCCCCCOc1ccc(NC(=O)c2c(F)c(F)c(F)c(F)c2C(=O)O)cc1Cl [Compound 301] | xxx | xxx | 5.1 ± 1 | xx | xxx | 9.9 ± 1.7 | xxx | 23 ± 2 | – | 16 (≈ 33.6 µM) | – | – | –
27 | O=C(O)c1ccccc1C(=O)Nc1ccc(OCc2cccc(C(F)(F)F)c2)c(Cl)c1 [Compound 387] | – | xx | – | – | – | – | – | – | – | – | – | – | –
28 | O=C(O)c1c(Br)c(Br)c(Br)c(Br)c1C(=O)Nc1ccc(OCc2cccc(C(F)(F)F)c2)c(Cl)c1 [Compound 390] | xxx | – | 1.9 ± 0.1 | xxx | xxx | 6 ± 0.8 | xxx | 14.2 ± 1.1 | < 8 | < 8 | significant inhibitory activity | 8 (≈ 10.5 µM) | –
29 | CCCCCCCCCCOc1ccc(N(C)C(=O)c2ccccc2C(=O)O)cc1 [Compound 318] | – | xxx | – | – | – | – | – | – | – | – | – | – | –
